Strand notation (5' to 3'): a small letter for the sugar, then the base; units joined by * are phosphorothioate-linked, units joined directly phosphodiester-linked; [ ] holds rarer units or linkages, { } end groups; capitals alone tell only the bases. e = 2'-O-(2-methoxyethyl) (MOE); k = constrained ethyl (cEt); [5mC] = 5-methylcytosine; d = 2'-deoxy (DNA); m = 2'-O-methyl
System: Yap1 mRNA
Assay: Antisense inhibition of human Yap1 in SNU-449 cells by modified oligonucleotides, single dose (Example 5, RTS36584)
Type: cell-based
Summary of the method: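 SNU-449 cells were given 2,000 nM oligonucleotide by free uptake for about 48 h. Yap1 mRNA was then measured by RT-qPCR with primer probe set RTS36584, normalized to total RNA by RIBOGREEN and expressed as percent of untreated control.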

[1] = Table 43 experiment, SNU-449 cells, 10,000 cells per well, free uptake, 2,000 nM, approximately 48 hours, RTS36584, Yap1 mRNA normalized to RIBOGREEN, relative to untreated control cells
[2] = Table 41, SNU-449 cells, 10,000 cells per well, free uptake, 2,000 nM modified oligonucleotide, approximately 48 hours, RTS36584, normalized to RIBOGREEN, Yap1 mRNA relative to untreated control cells
[3] = Table 45, Yap1 mRNA as percent of untreated control, SNU-449 cells, single dose
[4] = Table 39, SNU-449 cells, 10,000 cells per well, free uptake, 2,000 nM oligonucleotide, approx. 48 hours, RTS36584, normalized to RIBOGREEN, Yap1 mRNA relative to untreated control
[5] = Table 46, Yap1 mRNA as percent of untreated control, SNU-449 cells, single dose
[6] = Table 50, Yap1 mRNA remaining as percent of untreated control (UT), SNU-449 cells, single dose
[7] = Yap1 mRNA, percent of untreated control, modified oligonucleotides targeting SEQ ID NO: 1 and 2, Table 47
[8] = Table 42 (separate experiment), SNU-449 cells, 10,000 cells per well, free uptake, 2,000 nM modified oligonucleotide, approximately 48 hours, RTS36584, normalized to RIBOGREEN, Yap1 mRNA relative to untreated control cells
[9] = Table 44 experiment, SNU-449 cells, 10,000 cells per well, free uptake, 2,000 nM, approximately 48 hours, RTS36584, Yap1 mRNA normalized to RIBOGREEN, relative to untreated control cells
[10] = Table 52, Yap1 mRNA, modified oligonucleotides targeting SEQ ID NO: 1 and 2
[11] = Table 48, Yap1 mRNA level relative to untreated control, modified oligonucleotides targeting SEQ ID NO.: 1 and 2

1198271 (kT*kT*dA*dA*dA*dG*dT*dG*dT*dA*dT*eG*eT*e[5mC]*kA*kG) [Compound 1198271]
YAP1 (% UTC) [1]: 44 % UTC

1198645 (kT*k[5mC]*dT*dA*dT*dA*dT*dT*dA*dG*dA*dG*kT*eA*kT*eG; antisense) [Compound 1198645]
YAP1 (% UTC) [2]: 73 % UTC

1198934 (kA*kT*dT*dT*dA*dG*dG*dA*dT*dG*d[5mC]*kA*dT*kG*dG*kT; antisense) [Compound 1198934]
YAP1 (% UTC) [3]: 56 % UTC

1198418 (kT*d[5mC]*dA*dG*dA*dT*dT*dT*dA*dG*dG*kA*eT*kG*e[5mC]*kA; antisense) [Compound 1198418]
YAP1 (% UTC) [4]: 67 % UTC

1198868 (kT*kG*dT*dA*dA*dT*dA*dT*dT*dG*d[5mC]*kA*eA*kT*e[5mC]*kT; antisense) [Compound 1198868]
YAP1 (% UT) [5]: 49 % UT

1197288 (kT*k[5mC]*kT*dA*mU*dA*dT*dT*dA*dG*dA*dG*dT*kA*kT*kG; antisense) [Compound 1197288]
YAP1 (% UT) [6]: 94 % UT

1197186 (antisense kT*kT*kA*dA*dG*d[5mC]*dA*d[5mC]*dT*dT*dT*dT*dA*k[5mC]*kA*kT) [Compound 1197186]
YAP1 (% UT) [7]: 65 % UT

1197188 (antisense kT*kT*kG*dG*dA*dA*dG*dA*dT*d[5mC]*dT*dG*dA*kA*kA*k[5mC]) [Compound 1197188]
YAP1 (% UT) [7]: 96 % UT

1198394 (kT*dT*dT*dT*dA*d[5mC]*dA*dT*dT*dA*dG*kG*eA*kA*e[5mC]*kA; antisense) [Compound 1198394]
YAP1 (% UTC) [4]: 63 % UTC

1197183 (antisense kA*k[5mC]*kT*dT*dT*dT*dA*d[5mC]*dA*dT*dT*dA*dG*kG*kA*kA) [Compound 1197183]
YAP1 (% UT) [7]: 41 % UT

1198707 (kA*kA*dG*dT*dA*dA*dG*dG*dT*dT*dT*d[5mC]*k[5mC]*e[5mC]*kA*eG; antisense) [Compound 1198707]
YAP1 (% UTC) [8]: 31 % UTC

1197191 (antisense kA*kG*kT*dG*d[5mC]*dT*dT*dT*dG*dG*dA*dA*dG*kA*kT*k[5mC]) [Compound 1197191]
YAP1 (% UT) [7]: 40 % UT

1198207 (kA*kG*dT*dA*dT*dG*dT*dG*dG*d[5mC]*dA*eA*eT*eA*kA*kT; antisense) [Compound 1198207]
YAP1 (% UTC) [8]: 91 % UTC

1095622 (antisense k[5mC]*kT*dG*dA*dG*dG*dT*dA*dT*dA*dA*e[5mC]*kT*eG*kG*eG) [Compound 1095622]
YAP1 (% UTC) [9]: 44 % UTC

1198246 (kT*k[5mC]*dA*dG*dA*dT*dT*dT*dA*dG*dG*eA*eT*eG*k[5mC]*kA; antisense) [Compound 1198246]
YAP1 (% UTC) [1]: 30 % UTC

1200836 (kT*k[5mC]*kA*dG*dA*mU*dT*dT*dA*dG*dG*dA*dT*kG*k[5mC]*kA; antisense) [Compound 1200836]
YAP1 (% UT) [10]: 72 % UT

1198901 (kT*kA*dG*dA*dG*dT*dA*dT*dG*dT*dG*kG*d[5mC]*kA*dA*kT; antisense) [Compound 1198901]
YAP1 (% UTC) [9]: 28 % UTC

1198600 (antisense kG*kA*k[5mC]*dA*dA*d[5mC]*dT*d[5mC]*dT*dT*dA*dT*kA*kT*kG*eG) [Compound 1198600]
YAP1 (% UT) [6]: 72 % UT

1198601 (antisense kA*kT*kT*dG*d[5mC]*dA*dA*dT*d[5mC]*dT*dG*dT*k[5mC]*kT*kG*eA) [Compound 1198601]
YAP1 (% UT) [6]: 50 % UT

1198961 (kA*kA*dA*dG*dT*dG*dT*dA*dT*dG*dT*k[5mC]*dA*kG*dA*kA; antisense) [Compound 1198961]
YAP1 (% UTC) [3]: 12 % UTC

1198384 (kT*dA*dT*dT*dA*dG*dA*dG*dT*dA*dT*kG*eT*kG*eG*k[5mC]; antisense) [Compound 1198384]
YAP1 (% UTC) [4]: 6 % UTC

1198375 (kG*dG*dA*dA*dA*dT*dT*dG*dT*d[5mC]*dT*k[5mC]*eA*kT*eG*k[5mC]; antisense) [Compound 1198375]
YAP1 (% UTC) [4]: 22 % UTC

1200827 (kA*kG*kT*dG*d[5mC]*mU*dT*dT*dG*dG*dA*dA*dG*kA*kT*k[5mC]) [Compound 1200827]
YAP1 (% UT) [10]: 67 % UT

1198401 (kT*dT*dA*dA*dG*d[5mC]*dA*d[5mC]*dT*dT*dT*kT*eA*k[5mC]*eA*kT; antisense) [Compound 1198401]
YAP1 (% UTC) [4]: 63 % UTC

1198694 (antisense kT*kA*dT*dG*dT*dA*dA*dT*dA*dT*dT*dG*k[5mC]*eA*kA*eT) [Compound 1198694]
YAP1 (% UTC) [8]: 110 % UTC

1074463 (kT*kA*kG*dA*dG*dT*dA*dT*dG*dT*dG*dG*d[5mC]*kA*kA*kT; antisense) [Compound 1074463]
YAP1 (% UT) [7]: 20 % UT

1197180 (antisense kA*kT*kG*dG*dA*dA*dA*dT*dT*dG*dT*d[5mC]*dT*k[5mC]*kA*kT) [Compound 1197180]
YAP1 (% UT) [7]: 47 % UT

1198919 (A_{ks}G^{m}C_{ds}A_{ds}^{m}C_{ds}T_{ds}T_{ds}T_{ds}T_{ds}A_{ds}^{m}C_{ds}A_{ks}T_{ds}T_{ks}A_{ds}G_{k}; modified gapmer, phosphorothioate, as printed in the source, key not given here) [Compound 1198919]
YAP1 (% UTC) [3]: 60 % UTC

1198819 (kA*kT*dA*dT*dT*dA*dG*dA*dG*dT*dA*kT*eG*kT*eG*kG; antisense) [Compound 1198819]
YAP1 (% UT) [5]: 44 % UT

1198643 (kA*kT*dA*dT*dT*dA*dG*dA*dG*dT*dA*dT*kG*eT*kG*eG; antisense) [Compound 1198643]
YAP1 (% UTC) [2]: 25 % UTC

1198652 (kT*kT*dT*dT*dA*d[5mC]*dA*dT*dT*dA*dG*dG*kA*eA*k[5mC]*eA; antisense) [Compound 1198652]
YAP1 (% UTC) [2]: 68 % UTC

1198307 (kT*kT*kA*d[5mC]*dA*dT*dT*dA*dG*dG*dA*dA*k[5mC]*eA*kA*eG; antisense) [Compound 1198307]
YAP1 (% UT) [11]: 49 % UT

1198566 (antisense kT*kT*kT*dT*dA*d[5mC]*dA*dT*dT*dA*dG*dG*kA*kA*k[5mC]*eA) [Compound 1198566]
YAP1 (% UT) (Table 49, Yap1 mRNA level relative to untreated control, modified oligonucleotides targeting SEQ ID NO.: 1 and 2): 83 % UT

1198960 (kA*kA*dG*dT*dG*dT*dA*dT*dG*dT*d[5mC]*kA*dG*kA*dA*kG; antisense) [Compound 1198960]
YAP1 (% UTC) [3]: 6 % UTC

1198890 (kT*kG*dT*d[5mC]*dT*d[5mC]*dA*dT*dG*d[5mC]*d[5mC]*kT*dT*kA*dT*kA) [Compound 1198890]
YAP1 (% UTC) [9]: 19 % UTC

1198536 (kT*kA*dA*dG*dT*dA*dA*dG*dG*dT*dT*eT*k[5mC]*e[5mC]*k[5mC]*eA; antisense) [Compound 1198536]
YAP1 (% UTC) [9]: 20 % UTC

1198223 (k[5mC]*kT*dT*dT*dT*dA*d[5mC]*dA*dT*dT*dA*eG*eG*eA*kA*k[5mC]) [Compound 1198223]
YAP1 (% UTC) [8]: 94 % UTC

1198836 (kG*kG*dA*dA*dG*dA*dT*d[5mC]*dT*dG*dA*kA*eA*k[5mC]*eT*k[5mC]; antisense) [Compound 1198836]
YAP1 (% UT) [5]: 43 % UT

1198906 (kT*kA*dT*dA*dT*dT*dA*dG*dA*dG*dT*kA*dT*kG*dT*kG; antisense) [Compound 1198906]
YAP1 (% UTC) [9]: 56 % UTC

1200811 (kT*kT*kA*d[5mC]*dA*mU*dT*dA*dG*dG*dA*dA*d[5mC]*kA*kA*kG; antisense) [Compound 1200811]
YAP1 (% UT) [10]: 62 % UT

1198300 (kT*kA*kT*dA*dT*dT*dA*dG*dA*dG*dT*dA*kT*eG*kT*eG; antisense) [Compound 1198300]
YAP1 (% UT) [11]: 60 % UT

From patent publication US11214803B2, “Modulators of YAP1 expression” (Ionis Pharmaceuticals, Inc., priority 2019, dated 2022)
